Measurements reported in ChEMBL document CHEMBL5344402, “A multi-target directed ligands strategy for the treatment of Alzheimer's disease: Dimethyl fumarate plus Tranilast modified Dithiocarbate as AChE inhibitor and Nrf2 activator” (Eur J Med Chem, 2022).
Active and inactive are the calls of the source. The calls are words filed in the database; no cut-off is given here.

Columns and labels:
[1] = target: Cholinesterase (Equus caballus) (UniProt P81908); experiment: Inhibition of equine serum BuChE using butyrylthiocholine iodide as substrate at 10 uM preincubated for 5 mins followed by substrate addition by DTNB reagent based Ellman's method relative to control; type: cell-free
Sequence of Cholinesterase (Equus caballus) (P81908 whole entry): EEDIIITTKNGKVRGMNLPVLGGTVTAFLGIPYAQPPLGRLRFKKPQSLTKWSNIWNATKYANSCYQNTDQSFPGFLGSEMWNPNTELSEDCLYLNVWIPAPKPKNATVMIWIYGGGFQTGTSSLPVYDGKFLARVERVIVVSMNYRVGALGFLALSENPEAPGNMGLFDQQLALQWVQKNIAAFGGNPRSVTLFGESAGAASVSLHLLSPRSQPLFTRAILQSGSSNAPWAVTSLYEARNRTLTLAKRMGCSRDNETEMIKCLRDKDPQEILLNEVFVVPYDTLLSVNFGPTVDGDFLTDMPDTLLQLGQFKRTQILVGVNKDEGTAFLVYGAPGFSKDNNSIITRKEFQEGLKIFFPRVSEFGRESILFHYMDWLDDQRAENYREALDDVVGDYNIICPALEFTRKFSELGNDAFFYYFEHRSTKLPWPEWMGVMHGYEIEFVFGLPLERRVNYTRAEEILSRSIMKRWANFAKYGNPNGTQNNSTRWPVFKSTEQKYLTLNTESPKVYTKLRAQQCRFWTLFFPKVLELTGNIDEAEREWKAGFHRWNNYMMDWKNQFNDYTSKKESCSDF

Acetylcholinesterase [2] = target: Acetylcholinesterase (Electrophorus electricus, UniProt O42275); experiment: Inhibition of electric eel AChE using acetylthiocholine iodide as substrate preincubated for 5 mins followed by substrate addition by DTNB reagent based Ellman's method
Sequence of Acetylcholinesterase (Electrophorus electricus, UniProt O42275) (O42275 whole entry): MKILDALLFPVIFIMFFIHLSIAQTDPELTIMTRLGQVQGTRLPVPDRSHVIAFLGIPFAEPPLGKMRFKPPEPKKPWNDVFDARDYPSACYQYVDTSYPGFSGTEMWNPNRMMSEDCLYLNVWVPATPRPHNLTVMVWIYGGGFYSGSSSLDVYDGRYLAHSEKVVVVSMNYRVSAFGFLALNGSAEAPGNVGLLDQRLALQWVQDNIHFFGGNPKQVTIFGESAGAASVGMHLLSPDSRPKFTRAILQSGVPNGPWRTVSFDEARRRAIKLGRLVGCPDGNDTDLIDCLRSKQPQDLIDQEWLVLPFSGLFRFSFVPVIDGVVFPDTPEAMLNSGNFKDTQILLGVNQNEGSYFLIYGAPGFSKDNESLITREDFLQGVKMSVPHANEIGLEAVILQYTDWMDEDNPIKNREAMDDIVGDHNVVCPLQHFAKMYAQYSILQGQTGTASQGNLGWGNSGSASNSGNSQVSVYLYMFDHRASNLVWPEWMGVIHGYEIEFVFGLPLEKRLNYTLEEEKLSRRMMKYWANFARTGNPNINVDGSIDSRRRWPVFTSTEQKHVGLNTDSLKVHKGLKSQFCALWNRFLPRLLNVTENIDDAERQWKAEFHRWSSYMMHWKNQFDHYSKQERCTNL

BV-2 [3] = experiment: Anti-neuroinflammatory activity in mouse BV-2 cells assessed as reduction in LPS-induced iNOS expression at 1 to 7 uM incubated for 6 hrs followed by LPS addition measured after 24 hrs by Western blotting analysis; type: functional, cell-based; details: dose 1-7 µM, time 30.0 hrs
[4] = target: T1, Nuclear factor erythroid 2-related factor 2 (Mus musculus) (UniProt Q60795); experiment: Activation of NRF2 in mouse BV-2 cells assessed as increase in GPX4 protein expression at 7 uM by Western blotting analysis; type: cell-based; details: filed as activator, TDE = time-dependent effect
T1 sequence (whole entry): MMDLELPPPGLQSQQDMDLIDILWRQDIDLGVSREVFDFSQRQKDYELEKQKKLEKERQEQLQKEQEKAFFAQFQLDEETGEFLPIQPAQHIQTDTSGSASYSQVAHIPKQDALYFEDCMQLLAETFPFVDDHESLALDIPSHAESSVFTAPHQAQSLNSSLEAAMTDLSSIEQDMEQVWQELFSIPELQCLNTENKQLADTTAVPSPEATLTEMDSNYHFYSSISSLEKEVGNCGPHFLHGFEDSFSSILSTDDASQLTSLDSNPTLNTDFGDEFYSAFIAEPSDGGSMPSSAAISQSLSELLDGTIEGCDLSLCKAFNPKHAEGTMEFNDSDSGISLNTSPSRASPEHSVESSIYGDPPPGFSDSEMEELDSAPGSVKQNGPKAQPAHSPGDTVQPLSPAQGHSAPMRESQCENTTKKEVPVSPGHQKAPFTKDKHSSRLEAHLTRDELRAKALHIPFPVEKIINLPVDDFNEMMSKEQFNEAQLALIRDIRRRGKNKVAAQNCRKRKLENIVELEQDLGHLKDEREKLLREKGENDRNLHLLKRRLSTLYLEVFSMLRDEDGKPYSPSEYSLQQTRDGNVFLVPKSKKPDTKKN

[5] = Stability of the compound in serum (unknown origin) assessed as drug degradation incubated for 8 hrs by HPLC analysis; type: ADME, cell-free
[6] = Drug degradation in serum (unknown origin) incubated for 12 hrs by HPLC analysis; type: ADME, cell-free; details: read-out: Drug degradation
[7] = target: T1, Nuclear factor erythroid 2-related factor 2 (Mus musculus); experiment: Activation of NRF2 in mouse BV-2 cells assessed as increase in NQO1 protein expression at 7 uM incubated for 3 to 9 hrs by Western blotting analysis; type: cell-based; details: filed as activator, time 3-9 hrs
[8] = Acute toxicity in Kunming mouse assessed as liver pathological change at 625 to 2500 mg/kg,po administration for 14 days by Hematoxylin and eosin based staining analysis; type: organism-based; details: in vivo, 336 h, dose 625-2500 mg/kg, time 14 day
[9] = Acute toxicity in Kunming mouse assessed as heart pathological change at 625 to 2500 mg/kg,po administration for 14 days by Hematoxylin and eosin based staining analysis; type: organism-based; details: in vivo, 336 h, dose 625-2500 mg/kg, time 14 day
[10] = target: T1, Nuclear factor erythroid 2-related factor 2 (Mus musculus); experiment: Activation of NRF2 in mouse BV-2 cells assessed as increase in NQO1 protein expression at 7 uM by Western blotting analysis; type: cell-based; details: filed as activator, TDE = time-dependent effect
[11] = Acute toxicity in Kunming mouse assessed as lung pathological change at 625 to 2500 mg/kg,po administration for 14 days by Hematoxylin and eosin based staining analysis; type: organism-based; details: in vivo, 336 h, dose 625-2500 mg/kg, time 14 day
BV-2 [12] = experiment: Anti-neuroinflammatory activity in mouse BV-2 cells assessed as reduction in LPS-induced TNF-alpha production incubated for 6 hrs followed by LPS addition measured after 24 hrs by ELISA; type: functional, cell-based; details: time 30.0 hrs
[13] = target: Cholinesterase (Homo sapiens) (UniProt P06276); experiment: Inhibition of human BuChE using butyrylthiocholine iodide as substrate at 10 uM preincubated for 5 mins followed by substrate addition by DTNB reagent based Ellman's method relative to control
Sequence of Cholinesterase (Homo sapiens) (P06276 whole entry): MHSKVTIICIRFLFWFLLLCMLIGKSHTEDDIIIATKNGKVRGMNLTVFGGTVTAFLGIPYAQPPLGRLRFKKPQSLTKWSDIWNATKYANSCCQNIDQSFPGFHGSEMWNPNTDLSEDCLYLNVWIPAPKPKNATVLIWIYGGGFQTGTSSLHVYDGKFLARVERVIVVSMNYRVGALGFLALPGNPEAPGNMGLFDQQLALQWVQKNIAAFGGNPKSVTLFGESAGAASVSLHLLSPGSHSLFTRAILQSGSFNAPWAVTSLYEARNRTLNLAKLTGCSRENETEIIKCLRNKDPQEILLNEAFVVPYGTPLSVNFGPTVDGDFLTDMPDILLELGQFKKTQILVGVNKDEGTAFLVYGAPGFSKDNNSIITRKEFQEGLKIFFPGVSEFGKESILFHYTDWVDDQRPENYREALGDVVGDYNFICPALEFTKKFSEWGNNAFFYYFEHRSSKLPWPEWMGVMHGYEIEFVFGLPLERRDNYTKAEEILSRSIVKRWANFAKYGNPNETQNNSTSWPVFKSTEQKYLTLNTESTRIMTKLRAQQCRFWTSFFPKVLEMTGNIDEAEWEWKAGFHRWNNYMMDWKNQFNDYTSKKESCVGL

BV-2 [14] = experiment: Anti-neuroinflammatory activity in mouse BV-2 cells assessed as reduction in LPS-induced IL-6 production incubated for 6 hrs followed by LPS addition measured after 24 hrs by ELISA; type: functional, cell-based; details: time 30.0 hrs
BV-2 [15] = experiment: Anti-neuroinflammatory activity in mouse BV-2 cells assessed as reduction in LPS-induced COX-2 expression at 1 to 7 uM incubated for 6 hrs followed by LPS addition measured after 24 hrs by Western blotting analysis; type: functional, cell-based; details: dose 1-7 µM, time 30.0 hrs
BV-2 [16] = experiment: Activation of NRF2/ARE in mouse BV-2 cells assessed as upregulation of NRF2 expression at 7 uM by Western blotting analysis; type: cell-based; details: filed as activator, TDE = time-dependent effect
[17] = target: T1, Nuclear factor erythroid 2-related factor 2 (Mus musculus); experiment: Activation of NRF2 in mouse BV-2 cells assessed as increase in HO-1 protein expression at 7 uM by Western blotting analysis; type: cell-based; details: filed as activator, TDE = time-dependent effect
[18] = target: T1, Nuclear factor erythroid 2-related factor 2 (Mus musculus); experiment: Activation of NRF2 in mouse BV-2 cells assessed as increase in HO-1 protein expression incubated for 8 hrs by Western blotting analysis; type: cell-based; details: filed as activator
Mus musculus [19] = experiment: Antialzheimer activity in scopolamine-induced cognitive impairment Kunming mouse model assessed as increase in latency at 15 mg/kg,po administration by step-down assay; type: functional, organism-based
in vitro = details: PAMPA
[20] = Acute toxicity in Kunming mouse assessed as kidney pathological change at 625 to 2500 mg/kg,po administration for 14 days by Hematoxylin and eosin based staining analysis; type: organism-based; details: in vivo, 336 h, dose 625-2500 mg/kg, time 14 day
Acetylcholinesterase [21] = target: Acetylcholinesterase (Homo sapiens, UniProt P22303); experiment: Inhibition of human AChE using acetylthiocholine iodide as substrate preincubated for 5 mins followed by substrate addition by DTNB reagent based Ellman's method
Sequence of Acetylcholinesterase (Homo sapiens, UniProt P22303) (P22303 whole entry): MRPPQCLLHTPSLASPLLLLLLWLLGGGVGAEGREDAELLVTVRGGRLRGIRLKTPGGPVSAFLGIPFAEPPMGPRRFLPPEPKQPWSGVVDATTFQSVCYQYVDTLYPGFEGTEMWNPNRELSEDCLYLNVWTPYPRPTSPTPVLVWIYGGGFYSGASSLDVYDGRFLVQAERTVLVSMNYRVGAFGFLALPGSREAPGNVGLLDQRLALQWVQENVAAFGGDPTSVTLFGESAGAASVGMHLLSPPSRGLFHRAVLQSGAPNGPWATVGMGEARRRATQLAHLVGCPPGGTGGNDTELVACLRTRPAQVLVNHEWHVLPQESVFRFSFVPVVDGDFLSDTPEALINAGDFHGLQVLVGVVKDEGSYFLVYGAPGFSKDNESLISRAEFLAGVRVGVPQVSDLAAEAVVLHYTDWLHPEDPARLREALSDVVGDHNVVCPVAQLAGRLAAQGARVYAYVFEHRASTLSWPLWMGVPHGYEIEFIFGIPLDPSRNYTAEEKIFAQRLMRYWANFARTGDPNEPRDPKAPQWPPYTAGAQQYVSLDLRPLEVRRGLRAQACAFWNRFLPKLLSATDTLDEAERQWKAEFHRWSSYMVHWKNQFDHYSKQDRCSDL

[22] = target: T1, Nuclear factor erythroid 2-related factor 2 (Mus musculus); experiment: Activation of NRF2 in mouse BV-2 cells assessed as increase in GPX4 protein expression incubated for 8 hrs by Western blotting analysis; type: cell-based; details: filed as activator
Mus musculus [23] = experiment: Antialzheimer activity in scopolamine-induced cognitive impairment Kunming mouse model assessed as increase in latency at 7.5 mg/kg,po administration by step-down assay; type: functional, organism-based
[24] = target: T1, Nuclear factor erythroid 2-related factor 2 (Mus musculus); experiment: Activation of NRF2 in mouse BV-2 cells assessed as increase in NQO1 protein expression incubated for 8 hrs by Western blotting analysis; type: cell-based; details: filed as activator
Mus musculus [25] = experiment: Antialzheimer activity in scopolamine-induced cognitive impairment Kunming mouse model assessed as decrease in number of latency error at po administration by step-down assay; type: functional, organism-based
BV-2 [26] = experiment: Activation of NRF2/ARE in mouse BV-2 cells assessed as upregulation of nuclear NRF2 expression at 7 uM incubated for 4 hrs by Western blotting analysis; type: cell-based; details: filed as activator
BV-2 [27] = experiment: Cytoprotective activity against H2O2-induced toxicity in mouse BV-2 cells assessed as increase in cell viability incubated for 6 hrs by CCK-8 assay; type: functional, cell-based
[28] = Acute toxicity in Kunming mouse assessed as brain pathological change at 625 to 2500 mg/kg,po administration for 14 days by Hematoxylin and eosin based staining analysis; type: organism-based; details: in vivo, 336 h, dose 625-2500 mg/kg, time 14 day
[29] = Acute toxicity in Kunming mouse assessed as behavioral abnormalities at 625 to 2500 mg/kg,po administration for 4 hrs; type: organism-based; details: in vivo, dose 625-2500 mg/kg
BV-2 [30] = experiment: Anti-neuroinflammatory activity in mouse BV-2 cells assessed as reduction in LPS-induced NO production incubated for 6 hrs followed by LPS addition measured after 24 hrs by Griess reagent based assay; type: functional, cell-based; details: time 30.0 hrs
Mus musculus [31] = experiment: Antialzheimer activity in scopolamine-induced cognitive impairment Kunming mouse model assessed as increase in latency at po administration by step-down assay; type: functional, organism-based
BV-2 [32] = experiment: Activation of NRF2/ARE in mouse BV-2 cells assessed as upregulation of cytosolic NRF2 expression at 7 uM incubated for 10 hrs by Western blotting analysis; type: cell-based
[33] = Acute toxicity in Kunming mouse assessed as change in body weight at 625 to 2500 mg/kg,po administration for 14 days; type: organism-based; details: in vivo, 336 h, dose 625-2500 mg/kg, time 14 day
BV-2 [34] = experiment: Cytoprotective activity against H2O2-induced toxicity in mouse BV-2 cells assessed as decrease in ROS production incubated for 6 hrs by DCFH-DA staining based inverted fluorescence microscopic analysis; type: functional, cell-based
BV-2 [35] = experiment: Cytotoxicity against mouse BV-2 cells upto 10 uM incubated for 24 hrs by CCK-8 assay; type: toxicity, cell-based; details: bv-2, 24 h
[36] = target: T1, Nuclear factor erythroid 2-related factor 2 (Mus musculus); experiment: Activation of NRF2 in mouse BV-2 cells assessed as increase in GPX4 protein expression at 7 uM incubated for 3 to 9 hrs by Western blotting analysis; type: cell-based; details: filed as activator, time 3-9 hrs
BV-2 [37] = experiment: Activation of NRF2/ARE in mouse BV-2 cells assessed as upregulation of NRF2 expression incubated for 8 hrs by Western blotting analysis; type: cell-based; details: filed as activator
[38] = target: T1, Nuclear factor erythroid 2-related factor 2 (Mus musculus); experiment: Activation of NRF2 in mouse BV-2 cells assessed as increase in HO-1 protein expression at 7 uM incubated for 3 to 9 hrs by Western blotting analysis; type: cell-based; details: filed as activator, time 3-9 hrs

For `COC(=O)/C=C/C(=O)Nc1cccc(OCCCCSC(=S)N2CCC(O)CC2)c1`, the inhibition [1] was 10.1% and the IC50 (Acetylcholinesterase [2]) was 76.5 µM.
Work on `CCN(CC)C(=S)SCCCCOc1cccc(NC(=O)/C=C/C(=O)OC)c1` yielded an inhibition [1] of over 5% and an IC50 (Acetylcholinesterase [2]) of 11.3 µM.
`COC(=O)/C=C/C(=O)Nc1cccc(OCCCCSC(=S)N2CCOCC2)c1` gave an inhibition [1] of 6.88% and an IC50 (Acetylcholinesterase [2]) of 74.2 µM.
With `COC(=O)/C=C/C(=O)Nc1cccc(OCCCCSC(=S)N2CCCCC2C)c1` (configuration not stated) the Activity (BV-2 [3]) was “Active”, the Activity [4] was “Tde” and the Stability [5] was “Unstable”. The metabolised at 12 h [6] was 50%, the Activity [7] was “Active” and the Activity [8] was “Non-Toxic”. For the same compound, the Activity [9] was “Non-Toxic”, the Activity [10] was “Tde” and the Activity [11] was “Non-Toxic”. The inhibition [1] was 7.5%, the Activity (BV-2 [12]) was “Dose-Dependent Effect” and the inhibition [13] was under 5%. For the same compound, the Activity (BV-2 [14]) was “Dose-Dependent Effect”, the Activity (BV-2 [15]) was “Active” and the Activity (BV-2 [16]) was “Tde”. For the same compound, the Activity [17] was “Tde”, the Activity [18] was “Dose-Dependent Effect” and the Activity (Mus musculus [19]) was “Active”. For the same compound, the Papp at 18 h (in vitro) was 17.9 ×10⁻⁶ cm/s, the Activity [20] was “Non-Toxic” and the IC50 (Acetylcholinesterase [21]) was 0.053 µM. For the same compound, the Activity [22] was “Dose-Dependent Effect”, the Activity (Mus musculus [23]) was “inactive” and the Activity [24] was “Dose-Dependent Effect”. The Activity (Mus musculus [25]) was “Dose-Dependent Effect”, the Activity (BV-2 [26]) was “Active” and the Activity (BV-2 [27]) was “Dose-Dependent Effect”. For the same compound, the Activity [28] was “Non-Toxic”, the Activity [29] was “Non-Toxic” and the Activity (BV-2 [30]) was “Dose-Dependent Effect”. The Activity (Mus musculus [31]) was “Dose-Dependent Effect”, the Activity (BV-2 [32]) was “inactive” and the Activity [33] was “Non-Toxic”. The Activity (BV-2 [34]) was “Dose-Dependent Effect”, the Activity (BV-2 [35]) was “Non-Toxic” and the Activity [36] was “Active”. For the same compound, the Activity (BV-2 [37]) was “Dose-Dependent Effect”, the Activity [38] was “Active” and the IC50 (Acetylcholinesterase [2]) was 0.088 µM.
Compound `COC(=O)/C=C/C(=O)Nc1cccc(OCCCCSC(=S)N2C(C)CCCC2C)c1` (configuration not stated) has an inhibition [1] of 7.14% and an IC50 (Acetylcholinesterase [2]) of 16.5 µM.
`COC(=O)/C=C/C(=O)Nc1cccc(OCCCCSC(=S)N2CCN(C)CC2)c1` showed an inhibition [1] of over 5% and an IC50 (Acetylcholinesterase [2]) of 91.6 µM.
With `COC(=O)/C=C/C(=O)Nc1cccc(OCCCCSC(=S)N2CCCCC2)c1` the inhibition [1] was under 5%, the inhibition [13] was under 5% and the Papp at 18 h (in vitro) was 15.5 ×10⁻⁶ cm/s. The IC50 (Acetylcholinesterase [21]) was 0.21 µM and the IC50 (Acetylcholinesterase [2]) was 0.37 µM.
`CC(=O)[C@H]1CC[C@H]2[C@@H]3CCC4=CC(=O)CC[C@]4(C)[C@H]3CC[C@]12C` [PROGESTERONE] showed a Papp at 18 h (in vitro) of 11.2 ×10⁻⁶ cm/s.
Compound `COC(=O)/C=C/C(=O)Nc1cccc(OCCCCSC(=S)N(C)C)c1` has an inhibition [1] of 7.25% and an IC50 (Acetylcholinesterase [2]) of 56.5 µM.
